Entries after “also recorded” stand apart in the source; their conditions may differ.
What was measured:
[1] = tested on: diet induced obese (DIO) mice; assay: Evaluation of antiobesity, chronic study in diet induced obese mice; assay type: in vivo; conditions: 10 days, vs vehicle
Description: In an embodiment, the method includes selecting 17-18 week old male diet induced obese (DIO) mice, which were maintained on a high fat diet (D12451, Research Diets Inc, New Brunswick, N.J. 08901, USA, 45% kcal from fat), based on body weight. The selected mice can be dosed intraperitoneally with test (lead) compound, for example, in 0.5% CMC vehicle at a suitable frequency and for a suitable time, such as once daily for 10 consecutive days. This embodiment of the method can include recording body weight and food weight daily. Lead compounds are considered to be in vivo active if they produce statistically significant decrease in cumulative food intake for up to 1 day and a statistically significant decrease in cumulative body weight gain on day 10 as compared to mice treated with the 0.5% CMC vehicle. Sibutramine can be used as a standard at 3 mpk for comparison.
The assay was designed as in the reference, British Journal of Pharmacology, 132, 1898-1904, 2001, the disclosure of which is incorporated by reference for the teaching of the assay.
Male C57BI6/J mice (3-4 weeks of age) were housed in groups of 10 animals per cage in the animal facility. High fat diet (D12451 Research Diets Inc., New Brunswick, N.J. 08901, USA, 45% kcal from fat) and water was provided ad libitum for 14 weeks. After this period, the animals were housed individually in cages. The animals were weighed and separated into groups with similar body weight. They were acclimatised to the experimental procedures for 2 days. Animals were dosed intraperitoneally with test compound (200 mpk) or the standard (3 mpk) in 10 mL/kg of 0.5% CMC vehicle between 10:00 am-12:00 noon. After drug administration the animals were presented with a pre-weighed amount of food in the food cup. Weight of feed remaining in the cup and body weight were recorded daily just prior to dosing. The change in weight and cumulative food intake were computed.

[2] = tested on: dexamethasone treated insulin resistant 3T3-L1 adipocytes; assay: Insulin resistance assay (IR assay), 14C-2-deoxyglucose uptake; assay type: cell-based, mouse; conditions: for % of Rosiglitazone (comparison with Rosiglitazone): test compound 10 μM/mL versus Rosiglitazone 0.1 μM; for Fold vehicle (fold activity over vehicle): test compound 10 μM/mL, glucose uptake with 200 nM insulin, vehicle = 1.0
Description: A suitable insulin resistance assay includes screening of compounds which act as insulin-sensitizers using chronically dexamethasone treated 3T3-L1 adipocytes as an in vitro model. This is a known model for studying insulin signaling and insulin resistance. Chronically dexamethasone treated 3T3-L1 adipocytes serve as a valid in vitro model of insulin resistance resembling diabetes patients.
In an embodiment, the method according to the present invention includes screening compounds identified as active in the phenotype-based assay against dexamethasone treated insulin resistant adipocytes. For example, the method can include applying actives from the insulin sensitivity assay at a concentration of 1-10 μM to the insulin resistant adipocytes for 1-4 days. The adipocytes were previously prepared for the assay by long term exposure to dexamethasone, for example, at 100 nM for about 24-48 hours.
The method can also include determining whether the compounds enhance glucose uptake in the insulin resistant adipocytes by more than 50% above that enhanced by insulin. The method can then include selecting compounds as active, if they caused 1.5 fold or more increase in glucose uptake compared to insulin treated adipocytes. Glucose uptake can be measured by any of a variety of known methods, such as measuring uptake of ^14C-labeled 2-deoxyglucose, a non metabolisable analogue of D-Glucose.
The assay was designed as in the reference, British Journal of Pharmacology, 130, 351-58, 2000, which is incorporated herein by reference for disclosure of the assay.
The solution of test compound (10 μM/mL) was prepared in DMSO.
Rosiglitazone (0.1 μM in DMSO) was used as standard.
Differentiation into adipocytes was induced by known methods as described below. (J. Biol. Chem., 260, 2646-2652, 1985, which is incorporated herein by reference for disclosure of the induction).
Culture medium containing […] 1-methyl-3-isobutylxanthine (IBMX), 0.25 μM dexamethasone, 5 μg/ml insulin (bovine/human), 10 mM HEPES buffer and fetal bovine serum (FBS) 10% by volume in Dulbecco's modified Eagle's medium (DMEM) was used for differentiation.
3T3 L1 fibroblasts were seeded in 24-well or 6-well plates at a density of 0.5-2×10^4 cells/well and were allowed to reach maximal confluency.
The confluent fibroblasts were exposed to culture medium for 2 days. After this period, fresh culture medium (DMEM) containing only insulin was used, 10% FBS was added and cultured for 4 days with change of medium every 2 days. After 7 days the cultures received DMEM containing 10% FBS with no exposure to insulin. By the end of 8-10 days, more than 95% of the cells have become differentiated into adipocytes.
The mature adipocytes were exposed to dexamethasone, 100 nM added in ethanol, in culture medium and incubated for 2 days. On the third day, solution of test compound was added along with 100 nM dexamethasone containing medium for 4 days with a change in medium after every 2 days. Vehicle control contained 1% v/v of DMSO. Rosiglitazone was used as a standard and was added at a concentration of 0.1 μM in DMSO, along with 100 nM dexamethasone containing medium for 4 days with a change in medium after every 2 days. After a total period of 6 days, the cells were processed for glucose uptake as follows.
The insulin resistant adipocytes were exposed to serum-free DMEM containing 0.1% bovine serum albumin for 3-4 hours at 37° C. in CO2 atmosphere. The test compound was also present during this period. After 3-4 hours, the medium was aspirated and replaced with Kreb's Ringer phosphate (KRP) buffer at pH 7.4 and with human/porcine insulin, 200 nM. The cells were incubated for 30 minutes at 37° C. At the end of 30 minutes, 0.05 or 0.1 μCi of ^14C-2-deoxyglucose was added to each well of either 24-well or 6-well plates respectively and was incubated for exactly 5 minutes. After exactly 5 minutes, the plates were transferred to ice trays and medium was rapidly aspirated. […]

[3] = tested on: genetically diabetic db/db BL/6J mice; assay: Screening in db/db BL/6J mice, plasma glucose reduction; assay type: in vivo; conditions: 10 days
Description: In an embodiment, the method includes selecting 6-8 weeks old male db/db mice based on blood glucose levels determined after withholding feed for four hours. For example, the method can employ animals with plasma glucose levels in a suitable range, such as 300-500 mg/dl. The selected mice can be orally dosed with test (lead) compound, for example, in 0.5% carboxy methyl cellulose (CMC) vehicle at a suitable frequency and for a suitable time, such as twice daily for 10 consecutive days. This embodiment of the method can include obtaining blood on, for example, day 5 and day 10, after withholding feed for four hours, and determining plasma glucose levels. These levels can be determined using enzymatic methods (e.g., Diasys kit, Germany) in an autoanalyser. Lead compounds are considered to be in vivo actives if they produce statistically significant fall in plasma glucose on day 10 compared to mice treated with 0.5% CMC vehicle. Rosiglitazone can be used as a standard at 5 mg per kg (mpk) bid for comparison with test compounds.
The protocol was designed as in references. • 1.
The screening of compounds was based on their ability to reduce the plasma glucose levels in genetically diabetic db/db BL/6J mice.
Male db/db mice (obtained from the Animal House of Nicholas Piramal Research Centre, Goregaon, Mumbai, India) were used for this study (body weight in the range of 30-40 g and age is 6-8 weeks) and were kept eight per cage in individually ventilated cages at controlled temperature (22±1° C.) and humidity (45±5%). Food and water were provided ad libitum during their laboratory stay, except for four hours fasting prior to blood sample collection. 12 hours light and dark cycle was followed during the whole study period.
After 4 hours fasting blood samples were collected from mice. Mice showing plasma glucose levels between 300 to 500 mg/dl were divided in groups (8-10 per group) such that the mean plasma glucose levels and variation within the group, for each group, is nearly same. After grouping, mice in respective groups received treatment with 0.5% CMC vehicle, standard compound or test compounds for 10 days. Rosiglitazone was used as a standard.
After 4 hours fasting, mice were anaesthetized using isoflurane (inhalation anesthetic), and blood samples were collected through the retro orbital plexus. Collected blood samples were centrifuged at 7000 rpm for 10 minutes at 4° C.; Separated plasma was used for estimation of plasma glucose using diagnostic kits (Diasys, Germany). Plasma glucose levels of treated groups were normalized with control group using the following formula, which accounted for the changes in control group.

db/db mice = assay: Evaluation of lipid levels (dyslipidemia) in db/db mice; assay type: in vivo; conditions: 15 days
Description: (§1) Body weight was measured daily. On day 15, the animals were deprived of food for 4 hours after the last dose administration. Blood was collected at the end of the 4-hour period using heparinised capillaries by a retro-orbital puncture. Plasma samples were analyzed for, triglyceride and cholesterol, using the autoanalyser.
The assay was designed as in the reference, Metabolism, 49 (1), 22-31, 2000, the disclosure of which is incorporated by reference for the teaching of the assay.
as §1, with “Seven groups of male db/db mice (8 animals per group) were used. […] Body” for “Body”, “for glucose, triglyceride,” for “for, triglyceride and”

Row | SMILES | % of Rosiglitazone (comparison with Rosiglitazone) [2] [%] | Fold vehicle (fold activity over vehicle) [2] | Normalization with control (plasma glucose reduction) ([3]; 100 mpk bid, oral, 4 h fasted) | further results
1 | CC(C)CC(N(C)C)C1(c2ccc(Cl)cc2)CCC1 (stereo not shown) [Sibutramine, reference compound] |  |  |  | cumulative food intake ([1]; standard 3 mpk intraperitoneally, FIG. 4): significantly inhibited food intake; cumulative body weight gain ([1]; standard 3 mpk intraperitoneally, FIG. 5): inhibited body weight gain on all days
2 | COC(Cc1ccc(OCCN(C)C(=O)OC(C)(C)C)cc1)C(=O)O (stereo not shown) [Compound 2, 3-{4-[2-(tert-Butoxycarbonyl-methyl-amino)-ethoxy]-phenyl}-2-methoxy-propionic acid] | 105 ± 3.6 | 2.62 ± 0.05 | 45.14 ± 4.92 | 
3 | CC(=O)N1CCN(c2ccc(Oc3ncc(NS(=O)(=O)c4ccc(Cl)cc4Cl)cc3Cl)cc2)CC1 [Compound 6, N-{6-[4-(4-Acetyl-piperazin-1-yl)-phenoxy]-5-chloro-pyridin-3-yl}-2,4-dichloro benzenesulfonamide] | 61.4 ± 3.15 | 2.10 ± 0.05 | 46.07 ± 4.55 | cumulative food intake ([1]; 200 mpk intraperitoneally, FIG. 4, 200 mg/kg): effective in reducing cumulative food intake; also recorded: significantly inhibited food intake; cumulative body weight gain ([1]; 200 mpk intraperitoneally, FIG. 5, 200 mg/kg): effective in reducing cumulative body weight gain; also recorded: inhibited body weight gain on all days
4 | CC(=O)N1CCN(c2ccc(Oc3ncc(NC(=O)CCC(=O)O)cc3Cl)cc2)CC1 [Compound 7] | 27.5 ± 3.0 | 1.49 ± 0.05 | Inactive | 
5 | COC(=O)C(Cc1ccc(OCCN(C)C(=O)OC(C)(C)C)cc1)(OC)C(=O)OC [Compound 1, 2-{4-[2-(tert-Butoxycarbonyl-methyl-amino)-ethoxy]-benzyl}-2-methoxy-malonic acid dimethyl ether] | 72.5 ± 2.6 | 2.2 ± 0.18 | 42.93 ± 4.95 | 
6 | CN(CCOc1ccc(CC2SC(=O)NC2=O)cc1)c1ccccn1 (stereo not shown) [Rosiglitazone] |  |  |  | decrease in plasma triglyceride levels (db/db mice; Rosiglitazone 5 mpk oral bid): 40%; reduction in cholesterol levels (db/db mice; Rosiglitazone 5 mpk oral bid): 27%
7 | O=S(=O)(Nc1cnc(Oc2cc3ccccc3cn2)c(Cl)c1)c1ccc(Cl)cc1Cl [Compound 5, 2,4-Dichloro-N-[5-chloro-6-(isoquinolin-3-yloxy)pyridin-3-yl]-benzene sulfonamide] | 78.7 ± 3.5 | 2.41 ± 0.06 |  | reduction in cholesterol levels (db/db mice; doses higher than 50 mpk oral bid): 26%; Normalization with control (plasma glucose reduction) ([3]; 150 mpk od): 43.2 ± 15.7
8 | CC(C)(COC(=O)COc1ccc(C(=O)CN2Cc3cc(C(N)=S)ccc3C2=O)cc1)NS(=O)(=O)c1cccnc1 [Compound 3, {4-[2-(1-Oxo-5-thiocarbamoyl-1,3-dihydro-isoindol-2-yl)-acetyl]-phenoxy}-aceticacid-2-methyl-2-(pyridine-3-sulfonylamino)-propyl ester] | 31.6 ± 6.2 | 1.48 ± 0.09 |  | Normalization with control (plasma glucose reduction) ([3]; 50 mpk od): Inactive
9 | COc1ccc(S(=O)(=O)Nc2cnc(Oc3cnc4ccccc4c3)c(Cl)c2)cc1 [Compound 8, N-[5-Chloro-6-(quinolin-3-yloxy)-pyridine-3-yl]-4-methoxy-benzene sulfonamide] | 66.4 ± 5.2 | 2.19 ± 0.09 | 41.90 ± 3.84 | 
10 | CCOC(=O)CCN1Cc2cc(NCCN(C)c3nc4ccccc4o3)ccc2C1=O [Compound 4, 3-{5-[2-(Benzooxazol-2-yl-methyl-amino)-ethylamino]-1-oxo-1,3-dihydro-isoindol-2-yl}propionic acid ethyl ester] | 76.8 ± 12.4 | 1.88 ± 0.14 |  | Normalization with control (plasma glucose reduction) ([3]; 50 mpk bid): 24.99 ± 17.92

Reference: US20090318465A1, “METHOD FOR IDENTIFYING COMPOUNDS THAT ACT AS INSULIN-SENSITIZERS” (priority 2006, published 2009)
